The values below come from US10829473B2, “Modulators of the cystic fibrosis transmembrane conductance regulator protein and methods of use” (AbbVie Overseas S.Á.R.L., priority 2017, dated 2020).

The target in the experiment is T1, F508delCFTR (Homo sapiens, UniProt P13569, DEL508-508).
T1 construct: expressed in transfected cells; host or cells: CFBE41o- human lung derived epithelial cells (CFBE41o-F508delCFTR-HRP), doxycycline-inducible
Description: Cell Surface Expression-Horse Radish Peroxidase (CSE-HRP) Assay.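 On EC50 (with co-corrector): co-corrector chromenyl benzoic acid corrector at 2 or 3 µM.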 The format is cell-based. The note with it: for Maximum % activity (with co-corrector) / Maximum % activity (without co-corrector) / Emax: maximum at any tested concentration; for Emax: read-out: Maximum % activity (without co-corrector). As to the method: A cellular assay for measuring the F508delCFTR cell surface expression after correction with test compounds either without or with a co-corrector (2 μM of 3-[(2R,4R)-4-({[1-(2,2-difluoro-1,3-benzodioxol-5-yl)cyclopropyl]carbonyl}amino)-7-methoxy-3,4-dihydro-2H-chromen-2-yl]benzoic acid), was developed in human lung derived epithelial cell line (CFBE4lo−) (Veit G et al, (2012) Mol Biol Cell. 23(21): 4188-4202). The development was achieved by expressing the F508delCFTR mutation along with a horseradish peroxidase (HRP) in the fourth exofacial loop, and then measuring the HRP activity using luminescence readout from these cells, CFBE410-F508delCFTR-HRP, that were incubated overnight with the test corrector compounds, either without or with the co-corrector. For this primary assay, the CFBE410-F508delCFTR-HRP cells were plated in 384-well plates (Greiner Bio-one; Cat 781080) at 4,000 cells/well along with 0.5 μg/mL doxycycline to induce the F508delCFTR-HRP expression and further incubated at 37° C., 5% CO2 for 68-72 hours. The test compounds were then added either without or with a co-corrector at the required concentrations and further incubated for 18-24 hours at 33° C. The highest concentration tested was 20 μM or 30 μM (GI-1 to GIII-36) with an 8-point concentration response curve using a 3-fold dilution in both the test compound without or with the co-corrector. Three replicate plates were run to determine one EC50. All plates contained negative controls (dimethyl sulfoxide, DMSO) and positive control (2 μM or 3 μM (GI-1 to GIII-36) of 3-[(2R,4R)-4-({[1-(2,2-difluoro-1,3-benzodioxol-5-yl)cyclopropyl]carbonyl}amino)-7-methoxy-3,4-dihydro-2H-chromen-2-yl]benzoic acid) as well as on-plate concentration response of the positive control. Post incubation, the plates were washed 5× times with Dulbecco's phosphate buffered saline (DPBS), followed by the addition of the HRP substrate, luminol (50 4), and measuring the HRP activity using luminescence readout on EnVision® Multilabel Plate Reader (Perkin Elmer; product number 2104-0010). The raw counts from the experiment were analyzed using Accelrys® Assay Explorer v3.3.
Z′ greater than 0.5 was used as passing quality control criteria for the plates.
The Z′ is defined as: 1−[3*SDPositve Control+3*SDNegative Control/Absolute(MeanPositive Control−MeanNegative Control)] wherein “SD” is standard deviation.
The % activity measured at each of the 8 test concentrations of the test compound added either without or with a co-corrector (2 μM or 3 μM (GI-1 to GIII-36) of 3-[(2R,4R)-4-({[1-(2,2-difluoro-1,3-benzodioxol-5-yl)cyclopropyl]carbonyl}amino)-7-methoxy-3,4-dihydro-2H-chromen-2-yl]benzoic acid) was normalized to the on-plate positive control using the following formulae: % activity (Test compound without co-corrector)=[(test compound without co-corrector response DMSO response)/(positive control response DMSO response)]*100 % activity (Test compound with co-corrector)=[(test compound with co-corrector response DMSO response)/(positive control response DMSO response)]*100
The maximum % activity achieved for the test compound either without or with a co-corrector at any tested concentration is presented in Table 6 along with the respective EC50's calculated using the following general sigmoidal curve with variable Hill slope equation (described as Model 42 in the Accelrys® Assay Explorer v3.3 software): y=(a−d)/(1+(x/c)b)+d
General sigmoidal curve with concentration, response, top, bottom, EC50 and Hill slope. This model describes a sigmoidal curve with an adjustable baseline, a. The equation can be used to fit curves where response is either increasing or decreasing with respect to the independent variable, “x”.
“x” is a concentration of drug under test.
“a” is the maximum response, and “d” is the minimum response
“c” is the inflection point (EGO for the curve. That is, “y” is halfway between the lower and upper asymptotes when x=c.
“b” is the slope-factor or Hill coefficient. […]

Setting [1] is: test compound alone, without co-corrector, read-out: EC50 (without co-corrector).
Where [2] appears, read: with co-corrector, read-out: EC50 (with co-corrector).

Read-outs that look alike come from different tables or passages of the source.

Usually EC50 stands for the concentration that produces a half-maximal response.

T1 sequence (P13569 with tags, fused parts or gaps DEL508-508): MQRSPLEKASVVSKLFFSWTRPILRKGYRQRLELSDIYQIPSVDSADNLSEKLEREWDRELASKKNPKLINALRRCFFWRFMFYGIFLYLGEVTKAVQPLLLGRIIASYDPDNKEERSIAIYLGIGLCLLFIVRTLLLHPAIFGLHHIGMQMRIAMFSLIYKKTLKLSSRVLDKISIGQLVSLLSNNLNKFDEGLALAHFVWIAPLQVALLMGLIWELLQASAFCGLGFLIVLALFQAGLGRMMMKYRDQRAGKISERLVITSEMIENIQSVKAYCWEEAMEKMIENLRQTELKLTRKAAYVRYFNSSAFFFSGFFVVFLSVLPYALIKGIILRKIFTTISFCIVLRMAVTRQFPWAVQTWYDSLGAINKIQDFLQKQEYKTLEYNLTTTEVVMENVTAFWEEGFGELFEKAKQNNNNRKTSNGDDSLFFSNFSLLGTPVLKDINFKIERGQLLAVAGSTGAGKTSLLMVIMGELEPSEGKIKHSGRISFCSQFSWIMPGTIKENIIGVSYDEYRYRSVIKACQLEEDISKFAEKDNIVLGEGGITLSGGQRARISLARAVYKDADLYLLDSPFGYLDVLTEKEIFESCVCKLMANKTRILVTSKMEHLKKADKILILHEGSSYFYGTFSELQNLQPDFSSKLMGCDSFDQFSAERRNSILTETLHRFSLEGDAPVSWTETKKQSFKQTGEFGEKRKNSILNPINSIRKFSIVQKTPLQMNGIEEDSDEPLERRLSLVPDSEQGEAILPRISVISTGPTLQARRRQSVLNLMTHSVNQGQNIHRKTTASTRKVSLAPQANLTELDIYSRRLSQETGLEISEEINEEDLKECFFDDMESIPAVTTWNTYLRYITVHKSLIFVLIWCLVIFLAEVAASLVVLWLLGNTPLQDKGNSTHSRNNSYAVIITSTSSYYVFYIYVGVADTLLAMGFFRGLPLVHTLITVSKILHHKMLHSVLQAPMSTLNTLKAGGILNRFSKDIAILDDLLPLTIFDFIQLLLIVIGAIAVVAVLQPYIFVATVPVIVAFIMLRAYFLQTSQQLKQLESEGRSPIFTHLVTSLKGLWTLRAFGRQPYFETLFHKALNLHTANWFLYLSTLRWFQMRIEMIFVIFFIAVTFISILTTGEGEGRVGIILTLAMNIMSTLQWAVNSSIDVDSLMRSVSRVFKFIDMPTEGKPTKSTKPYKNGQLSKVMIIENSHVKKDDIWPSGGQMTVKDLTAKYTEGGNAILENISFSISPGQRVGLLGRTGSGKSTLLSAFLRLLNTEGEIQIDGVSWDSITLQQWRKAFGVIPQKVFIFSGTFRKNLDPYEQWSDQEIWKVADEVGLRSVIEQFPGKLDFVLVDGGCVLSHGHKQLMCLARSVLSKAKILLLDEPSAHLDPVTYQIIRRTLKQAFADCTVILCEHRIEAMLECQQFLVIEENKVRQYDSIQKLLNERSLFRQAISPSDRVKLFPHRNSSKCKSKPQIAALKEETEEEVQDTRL

In the case of “1-[5-(cyclopropylmethoxy)-2-methoxypyridin-4-yl]-N-(2-methylquinoline-5-sulfonyl)cyclopropane-1-carboxamide [Example GI-93]”, the “Maximum % activity (with co-corrector)” value (test compound with co-corrector) is “+++ (≥350)”. In addition, the EC50 by setting is: (test compound with co-corrector, read-out: EC50 (with co-corrector)) less than 3 µM; (test compound without co-corrector, read-out: EC50 (without co-corrector)) less than 3 µM. The “Maximum % activity (without co-corrector)” value (test compound without co-corrector) is on record as “+++ (≥150)”.
In the case of `CC(C)Oc1ncc(Br)cc1C1(C(=O)NS(=O)(=O)c2cccc3ncccc23)CC1` [Example GI-1, 1-{5-bromo-2-[(propan-2-yl)oxy]pyridin-3-yl}-N-(quinoline-5-sulfonyl)cyclopropane-1-carboxamide], the EC50 under setting [1] was less than 3 µM and the EC50 under setting [2] is less than 3 µM. The “Maximum % activity (with co-corrector)” value (with co-corrector) was “+++ (≥350)”. The Emax (without co-corrector) is greater than 150%.
For `CC(C)Oc1ncc(Br)cc1C1(C(=O)NS(=O)(=O)c2cccc3c2CCCN3)CC1` [Example GI-2, 1-{5-bromo-2-[(propan-2-yl)oxy]pyridin-3-yl}-N-(1,2,3,4-tetrahydroquinoline-5-sulfonyl)cyclopropane-1-carboxamide], the EC50 reads like this: under setting [1], less than 3 µM; under setting [2], less than 3 µM. In addition, the “Maximum % activity (with co-corrector)” value (with co-corrector) is given as “+++ (≥350)”. Under “without co-corrector”, the Emax is greater than 150%.
Take `COc1ncc(Cl)cc1C1(C(=O)NS(=O)(=O)c2cccc3ccccc23)CC1` [Example GI-3, 1-(5-chloro-2-methoxypyridin-3-yl)-N-(naphthalene-1-sulfonyl)cyclopropane-1-carboxamide]: the EC50 reads like this: under setting [1], less than 3 µM; under setting [2], less than 3 µM. Further, the “Maximum % activity (with co-corrector)” value (with co-corrector) is “+++ (≥350)”. In addition, the “Maximum % activity (without co-corrector)” value (without co-corrector) is reported as “+++ (≥150)”.
As to `CCCc1nc(C(F)(F)F)ccc1C1(C(=O)NS(=O)(=O)c2cccc3ncccc23)CC1` [Example GI-4, 1-[2-propyl-6-(trifluoromethyl)pyridin-3-yl]-N-(quinoline-5-sulfonyl)cyclopropane-1-carboxamide], the EC50 was 3 to 10 µM under setting [1] and less than 3 µM under setting [2]. Besides, the “Maximum % activity (with co-corrector)” value (with co-corrector) is reported as “+++ (≥350)”. Also, for the setting “without co-corrector”, the Emax was greater than 150%.
On the same counts, the results for `O=C(NS(=O)(=O)c1cccc2ncccc12)C1(c2ccc(C(F)(F)F)nc2C2CC2)CC1` [Example GI-5, 1-[2-cyclopropyl-6-(trifluoromethyl)pyridin-3-yl]-N-(quinoline-5-sulfonyl)cyclopropane-1-carboxamide] are 3 to 10 µM, less than 3 µM, “+++ (≥350)” and greater than 150%.
Consider `O=C(NS(=O)(=O)c1cccc2c1CCCN2)C1(c2ccc(C(F)(F)F)nc2C2CC2)CC1` [Example GI-6, 1-[2-cyclopropyl-6-(trifluoromethyl)pyridin-3-yl]-N-(1,2,3,4-tetrahydroquinoline-5-sulfonyl)cyclopropane-1-carboxamide], for which the half-maximal effective concentration (EC50) under setting [1] lay in the range of 3 to 10 µM and the EC50 under setting [2] was less than 3 µM. Where the note is “with co-corrector”, the “Maximum % activity (with co-corrector)” value is “+++ (≥350)”. The Emax (without co-corrector) was greater than 150%.
Regarding `CC(C)c1nc(C(F)(F)F)ccc1C1(C(=O)NS(=O)(=O)c2cccc3ncccc23)CC1` [Example GI-7, 1-[2-(propan-2-yl)-6-(trifluoromethyl)pyridin-3-yl]-N-(quinoline-5-sulfonyl)cyclopropane-1-carboxamide], the EC50 under setting [1] was in the range of 3 to 10 µM and the EC50 under setting [2] is less than 3 µM. Besides, the “Maximum % activity (with co-corrector)” value (with co-corrector) is “+++ (≥350)”. Further, the Emax (without co-corrector) is greater than 150%.
On to `CCCc1nc(C(F)(F)F)ccc1C1(C(=O)NS(=O)(=O)c2cccc3c2CCCN3)CC1` [Example GI-8, 1-[2-propyl-6-(trifluoromethyl)pyridin-3-yl]-N-(1,2,3,4-tetrahydroquinoline-5-sulfonyl)cyclopropane-1-carboxamide], for which the EC50 under setting [1] is less than 3 µM and the 50% effective concentration (EC50) under setting [2] is less than 3 µM. For the same compound, where the note is “with co-corrector”, the “Maximum % activity (with co-corrector)” value is reported as “+++ (≥350)”. The Emax (without co-corrector) is greater than 150%.
For `CC(C)c1nc(C(F)(F)F)ccc1C1(C(=O)NS(=O)(=O)c2cccc3c2CCCN3)CC1` [Example GI-9, 1-[2-(propan-2-yl)-6-(trifluoromethyl)pyridin-3-yl]-N-(1,2,3,4-tetrahydroquinoline-5-sulfonyl)cyclopropane-1-carboxamide], the EC50 runs as follows: under setting [1], less than 3 µM; under setting [2], less than 3 µM. The “Maximum % activity (with co-corrector)” value (with co-corrector) was “+++ (≥350)”. For the same compound, the Emax (without co-corrector) was greater than 150%.
Take `O=C(NS(=O)(=O)c1cccc2c1CCCN2)C1(c2ccc(C(F)(F)F)nc2C2CCC2)CC1` [Example GI-10, 1-[2-cyclobutyl-6-(trifluoromethyl)pyridin-3-yl]-N-(1,2,3,4-tetrahydroquinoline-5-sulfonyl)cyclopropane-1-carboxamide]: the EC50 was less than 3 µM under setting [1] and less than 3 µM under setting [2]. Under “with co-corrector”, the “Maximum % activity (with co-corrector)” value is listed as “+++ (≥350)”. Moreover, the Emax (without co-corrector) was greater than 150%.
On to `O=C(NS(=O)(=O)c1cccc2ccccc12)C1(c2ccc(C(F)(F)F)nc2C2CCC2)CC1` [Example GI-11, 1-[2-cyclobutyl-6-(trifluoromethyl)pyridin-3-yl]-N-(naphthalene-1-sulfonyl)cyclopropane-1-carboxamide], for which the EC50 reads like this: under setting [1], less than 3 µM; under setting [2], less than 3 µM. Besides, under “with co-corrector”, the “Maximum % activity (with co-corrector)” value is “+++ (≥350)”. For the setting “without co-corrector”, the Emax is greater than 150%.
On to `CC(C)COc1cnc(C2CC2)c(C2(C(=O)NS(=O)(=O)c3cccc4ncccc34)CC2)c1` [Example GI-12, 1-[2-cyclopropyl-5-(2-methylpropoxy)pyridin-3-yl]-N-(quinoline-5-sulfonyl)cyclopropane-1-carboxamide], for which the EC50 runs as follows: under setting [1], less than 3 µM; under setting [2], less than 3 µM. The “Maximum % activity (with co-corrector)” value (with co-corrector) is “+++ (≥350)”. Also, the Emax (without co-corrector) was greater than 150%.
`CCc1cnc(OC(C)C)c(C2(C(=O)NS(=O)(=O)c3cccc4ncccc34)CC2)c1` [Example GI-13, 1-{5-ethyl-2-[(propan-2-yl)oxy]pyridin-3-yl}-N-(quinoline-5-sulfonyl)cyclopropane-1-carboxamide]: the EC50 reads like this: under setting [1], less than 3 µM; under setting [2], less than 3 µM. In addition, the “Maximum % activity (with co-corrector)” value (with co-corrector) is “+++ (≥350)”. Moreover, for the setting “without co-corrector”, the Emax is greater than 150%.
`CCc1cnc(OC(C)C)c(C2(C(=O)NS(=O)(=O)c3cccc4c3CCCN4)CC2)c1` [Example GI-14, 1-{5-ethyl-2-[(propan-2-yl)oxy]pyridin-3-yl}-N-(1,2,3,4-tetrahydroquinoline-5-sulfonyl)cyclopropane-1-carboxamide]: the concentration for a half-maximal effect (EC50) by setting is: under setting [1], 3 to 10 µM; under setting [2], less than 3 µM. Besides, the “Maximum % activity (with co-corrector)” value (with co-corrector) is recorded as “+++ (≥350)”. Moreover, the Emax (without co-corrector) is greater than 150%.
For the compound `O=C(NS(=O)(=O)c1cccc2ncccc12)C1(c2ccc(C(F)(F)F)nc2N2CCCC2)CC1` [Example GI-15, 1-[2-(pyrrolidin-1-yl)-6-(trifluoromethyl)pyridin-3-yl]-N-(quinoline-5-sulfonyl)cyclopropane-1-carboxamide], the EC50 is less than 3 µM under setting [1] and less than 3 µM under setting [2]. The “Maximum % activity (with co-corrector)” value (with co-corrector) was “+++ (≥350)”. The Emax (without co-corrector) is greater than 150%.
